Data taken from article PMC12617972, “Inhibition of human cytomegalovirus replication by valaciclovir” (The Journal of General Virology, 2025).
Entries after “also recorded” stand apart in the source; their conditions may differ. Read-outs that look alike come from different tables or passages of the source.

Assays:
[1] = tested on: HCMV strain Merlin (R1111); assay: microbe, parasite or virus in culture; format: cell-based, human cytomegalovirus; conditions: for anti-HCMV activity in HFFF cells relative to other cell lines: HFFF cells vs HFF and SGHPL-4 cells; for EC50: read-out: 50% effective dose (EC50), anti-HCMV activity
[2] = tested on: HSV-1 strain 17+; assay: Virus yield assay, HSV in HFF cells; format: cell-based, herpes simplex virus; conditions: HFF (adult fibroblast) cells, MOI 1, 48 h post-infection
[3] = tested on: HCMV; conditions: previous studies; cited from earlier work
[4] = tested on: uninfected cell; parameters: method as in PMID 16492567; conditions: cited from earlier work
[5] = tested on: HCMV; parameters: method as in PMID 32919517; conditions: high doses administered during pregnancy, clinical trial; cited from earlier work
[6] = tested on: HFFF cells; conditions: uninfected HFFF cells, 96 h, high and low cell numbers
[7] = 2,000 mg/6 h; cited from earlier work
[8] = 2,000 mg dose; calculated with ChatGPT3 as Cmax × 1,000/molecular weight from commonly used literature Cmax values; cited from earlier work
[9] = tested on: SGHPL-4 cells; conditions: uninfected SGHPL-4 cells, 96 h, high and low cell numbers, 0.5% FBS
[10] = tested on: HFF cells; conditions: uninfected HFF cells, 96 h, high and low cell numbers
[11] = HFF, HFFF and SGHPL-4 cells, MOI 1, 96 h
[12] = Human betaherpesvirus 5, Fibroblast, 96 h

| Structure (SMILES) | anti-HCMV effects compared to GCV [1, 11] | anti-HCMV activity in HFFF cells relative to other cell lines ([1]; MOI 1, 96 h) | EC50 [1, 12] | 50% effective dose (EC50), anti-HSV activity [2] | difference between GCV and ACV inhibition of HCMV ([1]; found here, HFF cells) | difference between GCV and ACV anti-HCMV effects in vitro [3] | effect on uninfected cell viability in vitro [4] | inhibition of HCMV foetal infection [5] | effect on cell viability and cell division (MTT) [6] | tolerability in patients [7] | inhibition of HCMV replication in each cell line ([1]; HFF, HFFF and SGHPL-4 cells, lower drug concentration, MOI 1, 96 h) | EC50 ([1]; Human betaherpesvirus 5, HFF (adult fibroblast) cells, MOI 1, 96 h post-infection, virus yield) | plasma concentration [8] | effect on cell viability and cell division (MTT) [9] | effect on cell viability and cell division (MTT) [10] |
| --- | --- | --- | --- | --- | --- | --- | --- | --- | --- | --- | --- | --- | --- | --- | --- |
| Nc1nc2c(ncn2COCCO)c(=O)[nH]1 [ACV, aciclovir] | less anti-HCMV effects compared to GCV | less than in HFF and SGHPL-4 cells | 2.7 µM | well below micromolar concentrations | – | – | – | – | – | – | – | – | – | – | – |
| Nc1nc(O)c2ncn(COC(CO)CO)c2n1 [GCV, ganciclovir] | – | – | 0.5 µM | well below micromolar concentrations | approximately fivefold difference | approximately tenfold difference; also recorded: approximately tenfold greater | little or no effect | – | – | – | – | – | – | – | – |
| CC(C)[C@H](N)C(=O)OCCOCn1cnc2c(=O)[nH]c(N)nc21 [VACV, valaciclovir] | less anti-HCMV effects compared to GCV | less than in HFF and SGHPL-4 cells | – | – | – | – | – | notable inhibition of HCMV foetal infection | no obvious effect on cell viability | well tolerated by patients, without toxicity | inhibitor of HCMV in all cell lines | 3.4 µM | 35 to 40 µM | no obvious effect on cell viability | no obvious effect on cell viability |
